In patent US20050220726A1, “Use of sugar esters in cosmetic and/or pharmaceutical preparations” (priority 2003, published 2005):

Assays:
Format in all cases: cell-based
[1] = system: human leukaemic granulocytes; assay: Anti-inflammatory activity: respiratory burst of granulocytes (zymosan, luminol); conditions: + stimulation (zymosan), blank + stimulation = 100
Text: In the course of cutaneous inflammation, leucocytes, such as the polymorphonuclear neutrophilic granulocytes (PMNs) for example, are stimulated by peptides, such as cytokines for example, to emit messenger substances, such as leucotriene for example, which are released from activated or necrotic cells in the dermis. These activated PMNs release not only pro-inflammatory cytokinins, leucotrienes and proteases, but also ROS, such as superoxides and hypochlorite anions for example, of which the function is to destroy penetrated pathogenic germs or fungi. This activity of the PMNs during the inflammation is known as so-called respiratory burst. To investigate to what extent the test extracts can prevent or reduce the respiratory burst, a cell line of human leukaemic granulocytes of these PMNs was incubated together with the test substances at 37° C. and 5% by vol. CO2. After the respiratory burst had been initiated by addition of a yeast extract (zymosan) to the cell solution, the release of superoxide anions was determined through their reaction with luminol.

[2] = system: melanocytes (B16 cell line); assay: Inhibition of melanin synthesis in B16 melanocytes; conditions: 3 days, blank value = 100
Method: Melanin is the pigment responsible for the color of the skin and hair. It is formed in special organelles, the melanosomes, which occur in the melanocytes of the basal layer of the human epidermis. The biosynthesis of melanin begins with the amino acid tyrosine which is oxidized to DOPA (dihydroxyphenylalanine) in the presence of tyrosinase. The DOPA then polymerizes to melanin. […] After incubation for 3 days at 37° C./5% CO2, the nutrient medium was replaced by a solution containing the test substances in various concentrations. After incubation for another 3 days, the cell protein content (Bradford's method) and the content of synthesized melanin were determined through the optical density of the homogenizate at 475 nm. The results are expressed in % against a blank value and are set out in Table 7.

human keratinocytes = assay: Growth inhibition on human keratinocytes with EGF; conditions: with EGF 10 ng/ml, 3 days, control = 100, control with EGF = 167
Method: Increased proliferation and differentiation of keratinocytes of the hair matrix leads to improved longer hair growth. The following test was carried out to determine the potential of the sugar esters for inhibiting hair growth which is visibly reflected in a reduction in the proliferation of human keratinocyte culture in vitro.
To this end, human keratinocytes were cultivated in a standard cell culture medium containing foetal calf serum (FCS). After incubation for 1 day at 37° C./5% CO2, the growth medium was replaced by standard medium containing 10 ng/ml epidermal growth factor (EGF) and various concentrations of sugar esters dissolved in ethanol (1% by volume).
After incubation for three days, the number of living cells was determined by determining the cell protein content by the Bradford method [Bradford, M. M., A rapid and sensitive method for the quantitation of microgram quantities of protein utilizing the principle of protein-dye binding. Anal. Biochem. (1977), Vol. 72, pp. 248-254].
The results of Table 8 represent the values of triple determinations on two batches expressed in % against a control of cell culture medium without sugar ester.

human hair follicles = assay: Inhibition of hair growth, in vitro cultivated hair follicles; conditions: conc. 0.01 % w/v
Method: The hair-growth-inhibiting effect of the sugar esters was determined by a method using in vitro cultivated human hair follicles in a growth medium. The growth of the hair follicles was tested in the presence and absence of fructose caprate. To this end, the hair follicles were incubated for 7 days at 37° C./5% CO2. The length of the cultivated hair follicles was recorded after 3 days and 7 days of cultivation. In a comparison example, the growth medium additionally contained 30 ng/ml IGF-1 insulin-like growth factor), a cytokine which stimulates hair follicle growth.
Each of the tests was carried out with 10 hair follicles of a donor (5 donors in all).
The results are set out in Table 9 and represent the mean values of the 50 hair follicles.

Propionibacterium acnes = assay: Agar dilution method (MIC determination); conditions: 18 to 24 h at 37° C.
Method: (§1) The antibacterial activity of the test substances was tested by the diffusion method on agar plates or the agar dilution method. In this method, a round filter paper of defined diameter is first impregnated with the test solution and then applied to the surface of an agar plate inoculated beforehand with the test microorganisms. The size of the inhibition zones is then determined after defined times. In particular, it is possible by this method to determine the MIC (Minimum Inhibitory Concentration) as the lowest concentration of test substance with which complete inhibition of the microorganisms can be obtained. Agar dilution method (MIC determination). Various agars were prepared as described above, test substances were added in various concentrations, homogenized and dried. The Petri dishes were then inoculated with quantities of 2 μl of the bacterial suspension. After each drying step the Petri dishes were incubated for 18 to 24 h at 37° C. […] The results represent the averages of double determinations.

Staphylococcus aureus = assay: Agar dilution method (MIC determination); conditions: 18 to 24 h at 37° C.
Method: as §1

[3] = system: Staphylococcus epidermidis; assay: Agar dilution method (MIC determination); conditions: 18 to 24 h at 37° C.
Method: as §1

Work on Fructose caprate yielded a Cell counts ([1]; conc. 0.003 % w/v) of 97 %-rel, an ROS released ([1]; conc. 0.003 % w/v) of 87 %-rel and a Cell counts ([1]; conc. 0.01 % w/v) of 60 %-rel. The ROS released ([1]; conc. 0.01 % w/v) was 5 %-rel, the Cell melanin ([2]; conc. 0.003 % w/v) was 54 %-rel and the Cell proteins ([2]; conc. 0.003 % w/v) was 108 %-rel. The Cell melanin ([2]; conc. 0.006 % w/v) was 30 %-rel, the Cell proteins ([2]; conc. 0.006 % w/v) was 80 %-rel and the “Cell protein content in %” value (human keratinocytes; conc. 0.001 % w/v) was 163%. The “Cell protein content in %” value (human keratinocytes; conc. 0.003 % w/v) was 130%, the “Cell protein content in %” value (human keratinocytes; conc. 0.01 % w/v) was 45% and the “Hair follicle growth, increase Day 3/day 0” value (human hair follicles; + IGF (30 ng/ml IGF-1), control +21%) was “+15%”. For the same substance, the “Hair follicle growth, increase Day 7/day 0” value (human hair follicles; + IGF (30 ng/ml IGF-1), control +45%) was “+25%”, the “Hair follicle growth, increase Day 3/day 0” value (human hair follicles; without IGF, control +15%) was “+12%” and the “Hair follicle growth, increase Day 7/day 0” value (human hair follicles; without IGF, control +32%) was “+21%”. The “MIC, Propionibacterium acnes” value (Propionibacterium acnes) was 0.625 mg/mL, the “MIC, Staphylococcus aureus” value (Staphylococcus aureus) was 1.25 mg/mL and the “MIC, Staphylococcus epidermidis” value [3] was 1.25 mg/mL.
